Test results published in US9175036B2, “Antimicrobial water treatment membranes and production thereof” (BEN-GURION UNVERSITY OF THE NEGEV RESEARCH AND DEVELOPMENT …, priority 2009, dated 2015).
Converted amounts (≈) assume the structure as drawn. Read-outs that look alike come from different tables or passages of the source. Square brackets hold non-standard residues; d marks the D form. Peptide text beside a SMILES is read from it. Ahx = NCCCCCC(=O)O; βAla = NCCC(=O)O

What was measured:
Enterobacter = format: cell-based
Method: The IC50 is determined by an essay, suitable for the specific film-forming microorganism in question. For example, in the present invention, the Enterobacter assay, which is described in detail in the methods section below, was used to determine the antimicrobial activities of the tested peptides.
Quantitative Biofilm Growth Inhibition Assay in a 96-Wells Microtiter Plate:
Enterobacter culture (50 ml) was grown in tryptic soy broth media (TBS; prepared according to manufacturer instructions) overnight at 25° C. On the next day the turbidity of the culture was measured at 600 nm (Biomate 5 UV-Vis spectrophotometer, Thermo Fisher Scientific, Waltham, Mass.) and, if necessary, TSB was added to dilute the culture until the OD was 1.
Then 96 wells polystyrene microtiter plates (flat bottom, transparent, Becton Dickinson, Franklin Lakes, New-Jersey) were filled as following: Negative control wells (without bacteria) were filled with 125 μl TSB media and 25 μl of DDW:PBS1:1 buffer solution; Positive control wells (without peptide solution) were filled with 110 μl TSB media, 25 μl of DDW:PBS1:1 buffer solution and 15 μl of Enterobacter culture solution; Wells that contained AMPs at different concentrations were filled with 110 μl TSB media, 25 μl of peptide solution and 15 μl of Enterobacter culture solution.
The plates were incubated at 25° C. overnight. On the next day the plates were gently rinsed 5 times with distilled water to remove the planktonic bacteria and then dried at room temperature for 10 minutes. Then the biofilm on the walls of the wells was dyed by adding 200 μl, of 3% crystal violet (CV) to the wells. After 15 minutes at room temperature, the plates were gently rinsed 5 times with distilled water to remove excess dye and dried at room temperature for 10 minutes (Djordjevic, Wiedmann & McLandsborough 2002). The dry plates were filled with 200 μl ethanol, covered and gently agitated (Duomax 1030 rocking platform shaker, Heidolph, Kelheim, Germany) for 1 hour. The absorbance of extracted color was measured in a plate reading spectrophotometer (Infinite M200, Tecan, Mannedorf, Switzerland) at 595 nm.
The effect of linking the arm to a peptide, on the antimicrobial activity of the peptides was assessed by measuring the peptide activity in 96-microtitter plates in solution and comparing to activities of the normal peptides. Experiments were performed in water and in 3% NaCl solution. Table 6 presents the antimicrobial activity (IC50) of peptide-arm systems, in water and in 3% NaCl solution. Values were extracted from dose-response curves.
Different concentration solutions of peptides, bought or prepared as detailed in the methods section above, were prepared by diluting a stock solution with 1% ACN. Stock solution was prepared by dissolving water soluble peptides in DDW:PBS1:1. PBS (pH=7.4) was prepared by adding to 800 ml DDW, 8 grams NaCl, 0.2 grams KCl, 1.44 grams Na2HPO4 and 0.2 grams KH2PO4.
To evaluate whether attachment of a tether to the AMPs has an effect on the inhibitory potency, a PEGylated peptide (HS-PEG-D-Modelin-1) was prepared, and its inhibitory potency compared to that of the ‘normal’ peptide All-D-Modelin-1. Peptides were diluted in 2-fold serial dilutions, and the antibacterial activity of the peptides was determined in sterile 96-multititter plates.

pronase E = format: in vitro ADME
Method: Proteolytic Stability Assay of Peptides:
Stock solution (0.56 mg/ml) of each peptide was prepared by dissolving the peptide in PBS (pH=7.4). To each 90 μl of peptide solution 10 μl of enzyme solution, containing either a mixture of 0.5 μg trypsin (0.05 mg/ml) and 0.5 μg chymotrypsin (0.05 mg/ml) or 4 μg pronase E (0.4 mg/ml) in 0.001M HCl, was added. The enzymatic degradation of the peptide was monitored at controlled temperature of 25° C. by RP-HPLC with detection at 220 nm using Phenomenex C18 4.6×250 mm column with 5 μm particle size and 110 Å pore size. Elution gradient was: t=0 minutes, B=15%; t=5 minutes, B=15%; t=40 minutes, B=70%; t=42 minutes, B=95%; t=52 minutes, B=95% (flow rate 1 ml/minute).
Enzymes concentrations were determined by preliminary experiment that was performed to screen for concentrations allowing complete degradation of C-Modelin-1 within 1-2 hours. 10 μl of enzyme solution with varying concentrations were added to 90 μl of peptide solution (0.56 mg/ml) and enzymatic degradation of the peptide was monitored by RP-HPLC.
The enzymatic degradation was monitored at a fixed temperature of 25° C. by RP-HPLC at 220 nm, as described before. Elution gradient started with 85% A/15% B for 5 minutes continued with 30% A/70% B for 35 minutes and ended with 5% A-95% B for 12 minutes.
All the enzymes were used in concentrations allowing complete degradation of C-Modelin-1 within […].

[1] = peptide in solution, water, 96-microtitter plates, values extracted from dose-response curves

Row | SMILES | IC50 Normal conditions (Enterobacter) [µg/mL] | IC50 in 3% Aqueous NaCl (Enterobacter) [µg/mL] | also measured
1 | CC(C)C[C@H](NC(=O)[C@H](CCCCN)NC(=O)[C@H](CC(C)C)NC(=O)[C@H](Cc1c[nH]c2ccccc12)NC(=O)[C@H](CCCCN)NC(=O)[C@H](CCCCN)NC(=O)[C@H](C)NC(=O)[C@H](Cc1c[nH]c2ccccc12)NC(=O)[C@H](CCCCN)NC(=O)[C@H](CCCCN)NC(=O)[C@H](Cc1c[nH]c2ccccc12)NC(=O)[C@H](CC(C)C)NC(=O)[C@@H](N)CCCCN)C(=O)N[C@@H](Cc1c[nH]c2ccccc12)C(=O)N[C@@H](CCCCN)C(=O)N[C@@H](C)C(=O)N[C@@H](Cc1c[nH]c2ccccc12)C(=O)O [Modelin-1, KLWKKWAKKWLKLWKAW, reference compound] |  |  | IC50 in 3% Aqueous NaCl (Enterobacter; peptide in solution, 3% NaCl solution, 96-microtitter plates, values extracted from dose-response curves): 100 µg/mL (≈ 43 µM); IC50 Normal conditions (Enterobacter; [1]): 20 µg/mL (≈ 8.59 µM)
2 | CC(C)C[C@@H](NC(=O)[C@H](N)CCCCN)C(=O)N[C@H](Cc1c[nH]c2ccccc12)C(=O)N[C@H](CCCCN)C(=O)N[C@H](CCCCN)C(=O)N[C@H](Cc1c[nH]c2ccccc12)C(=O)N[C@H](C)C(=O)N[C@H](CCCCN)C(=O)N[C@H](CCCCN)C(=O)N[C@H](Cc1c[nH]c2ccccc12)C(=O)N[C@H](CC(C)C)C(=O)N[C@H](CCCCN)C(=O)N[C@H](CC(C)C)C(=O)N[C@H](Cc1c[nH]c2ccccc12)C(=O)N[C@H](CCCCN)C(=O)N[C@H](C)C(=O)N[C@H](Cc1c[nH]c2ccccc12)C(=O)O [D-Modelin-1, KLWKKWAKKWLKLWKAW] |  |  | IC50 (Enterobacter; repeated assay, D-Modelin-1 (crude) and HS-PEG-D-Modelin-1 prepared in the same synthesis): 3 µg/mL (≈ 1.29 µM)
3 | N=C(N)NCCC[C@H](NC(=O)[C@H](Cc1c[nH]c2ccccc12)NC(=O)[C@H](Cc1c[nH]c2ccccc12)NC(=O)[C@H](CCCNC(=N)N)NC(=O)[C@@H](N)CCCNC(=N)N)C(=O)N[C@@H](Cc1ccccc1)C(N)=O [Hexapeptide-4, RRWWRF-NH2, reference compound] (H-RRWWRF-NH2; N-terminus assumed) | 60 (≈ 59.7 µM) | 100 (≈ 99.5 µM) | 
4 | CC(C)C[C@H](NC(=O)[C@H](CCCCN)NC(=O)[C@H](Cc1ccccc1)NC(=O)[C@H](CC(C)C)NC(=O)[C@H](CC(C)C)NC(=O)CNC(=O)[C@H](CCCCN)NC(=O)[C@H](CC(C)C)NC(=O)[C@H](CCCCN)NC(=O)[C@@H]1CCCN1C(=O)[C@H](CC(C)C)NC(=O)[C@H](CC(C)C)NC(=O)[C@H](CC(C)C)NC(=O)[C@H](CCCCN)NC(=O)[C@H](CC(C)C)NC(=O)[C@H](CC(C)C)NC(=O)[C@H](CCCCN)NC(=O)[C@H](Cc1ccc(O)cc1)NC(=O)CNC(=O)CNC(=O)CNC(=O)CNC(=O)[C@@H](N)CS)C(N)=O [CG4-L^6P^9G^13F^16] (H-CGGGGYKLLKLLLPKLKGLLFKL-NH2; N-terminus assumed) | 110 (≈ 44.5 µM) | >300 | 
5 | CC(C)C[C@H](NC(=O)[C@H](CCCCN)NC(=O)[C@H](Cc1ccccc1)NC(=O)[C@H](CC(C)C)NC(=O)[C@H](CC(C)C)NC(=O)CNC(=O)[C@H](CCCCN)NC(=O)[C@H](CC(C)C)NC(=O)[C@H](CCCCN)NC(=O)[C@@H]1CCCN1C(=O)[C@H](CC(C)C)NC(=O)[C@H](CC(C)C)NC(=O)[C@H](CC(C)C)NC(=O)[C@H](CCCCN)NC(=O)[C@H](CC(C)C)NC(=O)[C@H](CC(C)C)NC(=O)[C@H](CCCCN)NC(=O)[C@@H](N)Cc1ccc(O)cc1)C(N)=O [L^6P^9G^13F^16, reference compound] (H-YKLLKLLLPKLKGLLFKL-NH2; N-terminus and C-terminus assumed) | 40 (≈ 18.7 µM) | 300 (≈ 140 µM) | 
6 | N=C(N)NCCC[C@H](NC(=O)CCCCCNC(=O)[C@@H](N)CS)C(=O)N[C@@H](CCCNC(=N)N)C(=O)N[C@@H](Cc1c[nH]c2ccccc12)C(=O)N[C@@H](Cc1c[nH]c2ccccc12)C(=O)N[C@@H](CCCNC(=N)N)C(=O)N[C@@H](Cc1ccccc1)C(N)=O [CX-Hexapeptide-4, CXRRWWRF-NH2] (H-C[Ahx]RRWWRF-NH2; N-terminus assumed) | 80 (≈ 65.5 µM) | >300 | 
7 | CC(C)C[C@H](NC(=O)[C@H](CCCCN)NC(=O)CCCCCNC(=O)[C@@H](N)CS)C(=O)N[C@@H](Cc1c[nH]c2ccccc12)C(=O)N[C@@H](CCCCN)C(=O)N[C@@H](CCCCN)C(=O)N[C@@H](Cc1c[nH]c2ccccc12)C(=O)N[C@@H](C)C(=O)N[C@@H](CCCCN)C(=O)N[C@@H](CCCCN)C(=O)N[C@@H](Cc1c[nH]c2ccccc12)C(=O)N[C@@H](CC(C)C)C(=O)N[C@@H](CCCCN)C(=O)N[C@@H](CC(C)C)C(=O)N[C@@H](Cc1c[nH]c2ccccc12)C(=O)N[C@@H](CCCCN)C(=O)N[C@@H](C)C(=O)N[C@@H](Cc1c[nH]c2ccccc12)C(=O)O [CX-Modelin-1, CXKLWKKWAKKWLKLWKAW] (H-C[Ahx]KLWKKWAKKWLKLWKAW-OH; N-terminus assumed) | 60 (≈ 23.6 µM) |  | 
8 | CC[C@H](C)[C@H](NC(=O)[C@H](CCCNC(=N)N)NC(=O)CNC(=O)[C@H](CC(C)C)NC(=O)[C@H](Cc1ccccc1)NC(=O)[C@H](CCCCN)NC(=O)[C@H](CO)NC(=O)[C@H](Cc1ccccc1)NC(=O)[C@H](Cc1c[nH]c2ccccc12)NC(=O)[C@H](CCC(N)=O)NC(=O)[C@@H](NC(=O)[C@H](Cc1ccccc1)NC(=O)CCCCCNC(=O)[C@@H](N)CS)C(C)C)C(=O)N[C@@H](CC(C)C)C(N)=O [CX-Temporin-L, CXFVQWFSKFLGRIL-NH2] (H-C[Ahx]FVQWFSKFLGRIL-NH2) |  |  | IC50 Normal conditions (Enterobacter; [1]): >300 µg/mL
9 | CC(C)C[C@H](NC(=O)[C@H](CCCCN)NC(=O)[C@H](CC(C)C)NC(=O)[C@H](Cc1c[nH]c2ccccc12)NC(=O)[C@H](CCCCN)NC(=O)[C@H](CCCCN)NC(=O)[C@H](C)NC(=O)[C@H](Cc1c[nH]c2ccccc12)NC(=O)[C@H](CCCCN)NC(=O)[C@H](CCCCN)NC(=O)[C@H](Cc1c[nH]c2ccccc12)NC(=O)[C@H](CC(C)C)NC(=O)[C@H](CCCCN)NC(=O)[C@@H](N)CS)C(=O)N[C@@H](Cc1c[nH]c2ccccc12)C(=O)N[C@@H](CCCCN)C(=O)N[C@@H](C)C(=O)N[C@@H](Cc1c[nH]c2ccccc12)C(=O)NCCC(=O)O [C-Modelin-1-βAla, CKLWKKWAKKWLKLWKAW-βAla] (H-CKLWKKWAKKWLKLWKAW[βAla]-OH) |  |  | digestion first detected after (pronase E): 5 min; peptides completely degraded after (pronase E): 135 min; IC50 (Enterobacter): 4 µg/mL (≈ 1.6 µM)
10 | CC(C)C[C@H](NC(=O)[C@H](CCCCN)NC(=O)CNC(=O)CNC(=O)CNC(=O)CN)C(=O)N[C@@H](Cc1c[nH]c2ccccc12)C(=O)N[C@@H](CCCCN)C(=O)N[C@@H](CCCCN)C(=O)N[C@@H](Cc1c[nH]c2ccccc12)C(=O)N[C@@H](C)C(=O)N[C@@H](CCCCN)C(=O)N[C@@H](CCCCN)C(=O)N[C@@H](Cc1c[nH]c2ccccc12)C(=O)N[C@@H](CC(C)C)C(=O)N[C@@H](CCCCN)C(=O)N[C@@H](CC(C)C)C(=O)N[C@@H](Cc1c[nH]c2ccccc12)C(=O)N[C@@H](CCCCN)C(=O)N[C@@H](C)C(=O)N[C@@H](Cc1c[nH]c2ccccc12)C(=O)O [Peptide G4-Modelin-1] (H-GGGGKLWKKWAKKWLKLWKAW-OH; N-terminus and C-terminus assumed) | 70 (≈ 27.4 µM) | 120 (≈ 46.9 µM) | 
